Experimental data reported in ChEMBL document CHEMBL1201862, “PubChem BioAssay data set” (2004).
Active and inactive are the calls of the source.

Legend:
[1] = HEK293T cytotoxicity, dose response, cytotoxicity control for miR-122 modulator project, cell-based, activator set, cherry-pick (AID 720690); format: functional;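 note: HEK293T human cells scored for general mammalian cytotoxicity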
[2] = miR-122 activators in hepatoma reporter cells, dose response, cell-based, Huh7 psiCHECK-miR122, Renilla luciferase, cherry-picked (AID 651956); format: functional;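 note: huh7 hepatoma cells stably carrying a psiCHECK-2 miR-122 sensor plasmid; renilla luciferase signal reporting endogenous miR-122 activity after 48 h compound exposure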
[3] = HEK293 Cytotoxicity Assay Measured in Cell-Based System Using Plate Reader - 7071-01_Inhibitor_Dose_CherryPick_Activity_Set2.; format: functional
[4] = Cryptococcus neoformans growth inhibition, dose response, Alamar Blue, cherry-picks (AID 686998); format: functional, organism-based
HEK293 [5] = test: HEK293T cell cytotoxicity, dose response, cytotoxicity control, ATP luminescence, cherry-pick samples (AID 687005); format: functional, cell-based; settings: Homo sapiens;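 note: cells exposed to compound for 48 hours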
[6] = HeLa cell cytotoxicity, dose response, cytotoxicity control, CellTiter-Glo luminescence, dry powder, set 2 (AID 720593); format: functional, cell-based
Nonstructural protein 1 = Nonstructural protein 1 (Influenza A virus, UniProt Q194T2); format: functional, Influenza A virus (A/California/07/2009(H1N1))
Sequence of Nonstructural protein 1 (Q194T2 whole entry): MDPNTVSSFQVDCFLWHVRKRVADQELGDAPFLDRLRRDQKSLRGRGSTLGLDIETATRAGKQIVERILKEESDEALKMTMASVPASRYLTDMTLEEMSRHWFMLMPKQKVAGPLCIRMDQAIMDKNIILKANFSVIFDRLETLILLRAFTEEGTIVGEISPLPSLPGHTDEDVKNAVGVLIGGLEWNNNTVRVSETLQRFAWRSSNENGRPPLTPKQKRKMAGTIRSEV

[7] = HepG2 cell cytotoxicity, dose response, cytotoxicity control, ATP luminescence, cherry-pick, set 6 (AID 1053125); format: functional, cell-based
cells [8] = settings: HEK293
cells [9] = test: cells
cells [10] = settings: A549
INS1 = test: beta cell apoptosis inhibitors, cytokine rescue, dose response, luminescence, retest (AID 449756); format: functional, cell-based; settings: Rattus norvegicus;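 note: cell death triggered by IL-1 beta plus TNF-alpha plus IFN-gamma mixture; protective hits raise ATP signal compared with cytokine alone wells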
[11] = HepG2 cell cytotoxicity, dose response, cytotoxicity control, ATP luminescence, cherry-pick, activator set 2 (AID 1053143); format: functional, cell-based
H4 = test: Luminescence Cell-Based Dose Response HTS to Identify Activators of 5'UTR Stem-Loop Driven Prion Protein mRNA Translation in H4 Neuroglioblastoma Cells. [Related pubchem assays: 1829 (Project Summary), 1814 (Primary HTS)]; format: functional; settings: Homo sapiens
[12] = Luminescence Cell-Based Dose Confirmation HTS to Identify Activators of 5'UTR Stem-Loop Driven Alpha-Synuclein mRNA Translation in H4 Neuroglioblastoma Cells. [Related pubchem assays: 1829 (Project Summary), 1814 (Primary HTS)]; format: functional
[13] = Luminescence Cell-Based Dose Response HTS to Identify Activators of Luciferase Translation or Activity in H4 […] Cells. [Related pubchem assays: 1829 (Project Summary), 1814 (Primary HTS)]; format: functional
[14] = control 3'UTR Renilla luciferase suppression, dose response, counter-screen for Shn3 inhibitor project, cell-based, Clone20-Shn3RL, cherry-picked (AID 624133); format: functional
Protein skinhead-1 = target: T1, Protein skinhead-1 (Caenorhabditis elegans, UniProt P34707); format: functional
T1 sequence (P34707 whole entry): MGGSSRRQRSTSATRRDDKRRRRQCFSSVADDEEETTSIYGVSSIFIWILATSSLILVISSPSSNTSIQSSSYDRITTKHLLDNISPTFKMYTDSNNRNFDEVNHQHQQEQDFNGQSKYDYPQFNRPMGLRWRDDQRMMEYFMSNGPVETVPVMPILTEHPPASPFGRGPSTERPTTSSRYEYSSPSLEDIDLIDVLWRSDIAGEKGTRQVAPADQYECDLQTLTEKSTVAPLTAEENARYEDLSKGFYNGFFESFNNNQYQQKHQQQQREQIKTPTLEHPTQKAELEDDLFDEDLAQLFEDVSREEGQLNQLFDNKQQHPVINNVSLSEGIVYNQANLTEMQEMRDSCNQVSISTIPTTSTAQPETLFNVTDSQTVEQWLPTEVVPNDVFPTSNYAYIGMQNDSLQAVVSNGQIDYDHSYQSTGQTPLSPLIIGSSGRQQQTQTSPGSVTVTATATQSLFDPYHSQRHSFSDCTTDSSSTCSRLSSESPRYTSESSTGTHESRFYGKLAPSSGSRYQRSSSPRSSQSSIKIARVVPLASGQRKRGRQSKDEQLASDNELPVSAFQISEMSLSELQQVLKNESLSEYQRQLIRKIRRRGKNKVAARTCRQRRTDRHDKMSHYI

[15] = HEK293 cell cytotoxicity, dose response, cytotoxicity control, plate reader, cherry-picked samples (AID 743446); format: functional, cell-based
[16] = HepG2 cell cytotoxicity, dose response, cytotoxicity control for Shn3 inhibitor project, CellTiter-Glo, cherry-picked (AID 624134); format: functional, cell-based
[17] = Fluorescence-based cell-based high throughput dose response assay for inhibitors of the interaction of nucleotide-binding oligomerization domain containing 2 (NOD2) and the receptor-interacting serine-threonine kinase 2 (RIPK2).; format: functional; settings: Homo sapiens
Beta Lactamase = Beta Lactamase (Pseudomonas aeruginosa, UniProt Q932Y6); test: beta-lactamase reporter inhibitor potency, dose response, artefact control for NOD2-RIPK2 interaction inhibitor project, BLA reporter cells, FRET fluorescence (AID 651552); format: functional, cell-based
Sequence of Beta Lactamase (Q932Y6 whole entry): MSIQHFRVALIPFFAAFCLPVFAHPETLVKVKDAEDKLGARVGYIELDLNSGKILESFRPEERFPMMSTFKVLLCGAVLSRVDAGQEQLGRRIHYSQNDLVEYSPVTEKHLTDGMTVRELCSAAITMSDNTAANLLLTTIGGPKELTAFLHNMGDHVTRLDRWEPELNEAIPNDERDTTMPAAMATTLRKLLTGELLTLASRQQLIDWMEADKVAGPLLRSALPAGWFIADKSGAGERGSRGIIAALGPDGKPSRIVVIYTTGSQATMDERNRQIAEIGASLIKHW

[18] = A549 cell cytotoxicity, dose response, cytotoxicity control, plate reader, cherry-pick, antagonist series (AID 743412); format: functional, cell-based
[19] = HepG2 cell cytotoxicity, dose response, cytotoxicity control, plate reader, cherry-pick, antagonist series (AID 743416); format: functional, cell-based
[20] = Shn3 3'UTR reporter inhibitors, dose response, cell-based, Clone20 osteoblasts, firefly luciferase, cherry-picked (AID 624132); format: functional;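 note: firefly luciferase luminescence from reporter carrying the Shn3 3'UTR in osteoblasts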
[21] = LGR2 antagonists, dose response, cell-based, HEK293, CRE-luciferase reporter, cherry pick, set 2 (AID 743343); format: functional;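 note: transfected cells were stimulated with diluted bursicon conditioned medium after compound addition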
[22] = MC4R antagonists, dose response, counter-screen for LGR2 antagonist project, cell-based, plate reader, cherry pick (AID 743444); format: functional;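 note: transfected HEK 293 cells stimulated with alpha-MSH peptide; potency of inhibitors of the alpha-MSH evoked signal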
[23] = reduction of Shn3 3'UTR firefly luciferase signal, dose response, Schnurri-3 inhibitor project, cell-based, Clone20 osteoblasts, cherry-pick, set 2 (AID 720490); format: functional;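 note: actives lower the luminescence signal as inhibitors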
[24] = inhibitors of control Renilla luciferase reporter, dose response, counter-screen for Shn3 3'UTR targeting project, Clone20-Shn3RL cells, dual-Glo, cherry-pick, set 2 (AID 720724); format: functional, cell-based; settings: Dual-Go Shn3RL
HEK293 [25] = test: cells; format: functional, cell-based; settings: Homo sapiens
BJ [26] = test: cytotoxicity toward BJ-TERT-LT-ST fibroblasts, dose response, cell-based, RAS-independent, luminescence (AID 1935); format: functional; settings: Homo sapiens;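 note: BJ fibroblasts immortalized with TERT plus LT and ST oncogenes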
HEK293 [27] = test: cells; format: functional, cell-based; settings: Homo sapiens; remark: listed apart in the source
[28] = target: Disintegrin and metalloproteinase domain-containing protein 17 (Homo sapiens, UniProt P78536); test: exosite inhibitors of ADAM17, dose response, biochemical (AID 743260)
Sequence of Disintegrin and metalloproteinase domain-containing protein 17 (P78536 whole entry, the tested form may be a part): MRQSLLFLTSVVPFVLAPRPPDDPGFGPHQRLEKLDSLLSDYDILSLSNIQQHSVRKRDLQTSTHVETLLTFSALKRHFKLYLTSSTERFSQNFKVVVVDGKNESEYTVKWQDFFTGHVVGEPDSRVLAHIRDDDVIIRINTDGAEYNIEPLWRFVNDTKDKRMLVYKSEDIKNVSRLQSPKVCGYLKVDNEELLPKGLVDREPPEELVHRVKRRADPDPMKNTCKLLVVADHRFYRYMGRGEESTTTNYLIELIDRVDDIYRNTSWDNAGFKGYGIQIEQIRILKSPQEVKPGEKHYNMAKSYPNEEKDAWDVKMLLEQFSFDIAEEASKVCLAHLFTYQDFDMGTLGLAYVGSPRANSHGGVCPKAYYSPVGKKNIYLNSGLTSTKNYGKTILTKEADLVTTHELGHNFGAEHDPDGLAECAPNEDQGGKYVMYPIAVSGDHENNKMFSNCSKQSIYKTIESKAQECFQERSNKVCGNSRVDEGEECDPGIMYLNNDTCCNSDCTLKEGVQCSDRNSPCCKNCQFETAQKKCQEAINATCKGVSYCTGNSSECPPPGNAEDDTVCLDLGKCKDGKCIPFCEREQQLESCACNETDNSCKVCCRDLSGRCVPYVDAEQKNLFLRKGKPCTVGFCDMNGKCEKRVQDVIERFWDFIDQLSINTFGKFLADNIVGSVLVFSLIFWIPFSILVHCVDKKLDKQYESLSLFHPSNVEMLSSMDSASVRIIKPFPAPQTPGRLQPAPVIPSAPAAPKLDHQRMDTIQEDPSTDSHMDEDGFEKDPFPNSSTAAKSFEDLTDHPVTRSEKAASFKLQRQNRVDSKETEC

[29] = target: Luciferin 4-monooxygenase (Photinus pyralis, UniProt P08659); test: firefly luciferase enzyme inhibitors, dose response, biochemical, luminescence (AID 1891)
Sequence of Luciferin 4-monooxygenase (P08659 whole entry): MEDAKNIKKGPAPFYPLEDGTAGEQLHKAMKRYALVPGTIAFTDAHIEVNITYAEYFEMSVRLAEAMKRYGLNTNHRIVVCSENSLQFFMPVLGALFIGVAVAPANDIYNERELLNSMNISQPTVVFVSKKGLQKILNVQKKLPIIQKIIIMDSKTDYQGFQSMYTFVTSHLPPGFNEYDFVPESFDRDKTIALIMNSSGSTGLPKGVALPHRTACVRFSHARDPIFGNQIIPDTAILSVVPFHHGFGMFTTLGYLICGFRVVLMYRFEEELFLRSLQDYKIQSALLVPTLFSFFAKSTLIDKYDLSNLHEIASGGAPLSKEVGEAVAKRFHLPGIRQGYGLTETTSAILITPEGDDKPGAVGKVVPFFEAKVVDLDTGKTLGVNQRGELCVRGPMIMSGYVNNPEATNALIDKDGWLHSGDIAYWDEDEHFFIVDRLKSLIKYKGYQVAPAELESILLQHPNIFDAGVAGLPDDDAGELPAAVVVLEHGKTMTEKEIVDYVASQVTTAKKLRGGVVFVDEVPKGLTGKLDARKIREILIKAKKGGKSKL

BJ [30] = test: cytotoxicity toward BJ-TERT fibroblasts, dose response, cell-based, RAS-independent, luminescence (AID 1933); format: functional; settings: Homo sapiens
HEK293 [31] = test: NOD1 signaling inhibitors, primary screen, cell-based, luminescence, uHTS (AID 1578); format: functional; settings: Homo sapiens
[32] = cytotoxicity toward DRD oncogenic fibroblasts, dose response, cell-based, non-viral oncogenic, luminescence (AID 1934); format: functional; settings: Homo sapiens
[33] = Luminescence Cell-Based Dose Confirmation HTS to Identify Inhibitors of Platelet Dense Granule Release. [Related pubchem assays: 1663 (Primary HTS), 1678 (Summary of Project)]; format: functional
BJ [34] = test: cells; format: functional, cell-based; settings: Homo sapiens
[35] = target: Nucleotide-binding oligomerization domain-containing protein 2 (Homo sapiens, UniProt Q9HC29); test: NOD2 signaling inhibitors, cell-based, luminescence, uHTS, HEK293 (AID 1566); format: functional
[36] = ADAM10 protease inhibitors, dose response, selectivity assay for ADAM17 exosite inhibitor project, biochemical, FRET peptide substrate, recombinant human ADAM10 (AID 743259);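 note: ADAM10 enzyme cleaving a FRET peptide substrate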
HEK293 [37] = test: cells; format: functional, cell-based; settings: Homo sapiens; remark: listed apart in the source
Fatty acid synthase = Fatty acid synthase (Homo sapiens, UniProt P49327); test: FAS thioesterase domain inhibitors, SAR follow-up, biochemical, endpoint fluorescence intensity, powder samples (AID 652164); format: functional
Sequence of Fatty acid synthase (P49327 whole entry, the tested form may be a part): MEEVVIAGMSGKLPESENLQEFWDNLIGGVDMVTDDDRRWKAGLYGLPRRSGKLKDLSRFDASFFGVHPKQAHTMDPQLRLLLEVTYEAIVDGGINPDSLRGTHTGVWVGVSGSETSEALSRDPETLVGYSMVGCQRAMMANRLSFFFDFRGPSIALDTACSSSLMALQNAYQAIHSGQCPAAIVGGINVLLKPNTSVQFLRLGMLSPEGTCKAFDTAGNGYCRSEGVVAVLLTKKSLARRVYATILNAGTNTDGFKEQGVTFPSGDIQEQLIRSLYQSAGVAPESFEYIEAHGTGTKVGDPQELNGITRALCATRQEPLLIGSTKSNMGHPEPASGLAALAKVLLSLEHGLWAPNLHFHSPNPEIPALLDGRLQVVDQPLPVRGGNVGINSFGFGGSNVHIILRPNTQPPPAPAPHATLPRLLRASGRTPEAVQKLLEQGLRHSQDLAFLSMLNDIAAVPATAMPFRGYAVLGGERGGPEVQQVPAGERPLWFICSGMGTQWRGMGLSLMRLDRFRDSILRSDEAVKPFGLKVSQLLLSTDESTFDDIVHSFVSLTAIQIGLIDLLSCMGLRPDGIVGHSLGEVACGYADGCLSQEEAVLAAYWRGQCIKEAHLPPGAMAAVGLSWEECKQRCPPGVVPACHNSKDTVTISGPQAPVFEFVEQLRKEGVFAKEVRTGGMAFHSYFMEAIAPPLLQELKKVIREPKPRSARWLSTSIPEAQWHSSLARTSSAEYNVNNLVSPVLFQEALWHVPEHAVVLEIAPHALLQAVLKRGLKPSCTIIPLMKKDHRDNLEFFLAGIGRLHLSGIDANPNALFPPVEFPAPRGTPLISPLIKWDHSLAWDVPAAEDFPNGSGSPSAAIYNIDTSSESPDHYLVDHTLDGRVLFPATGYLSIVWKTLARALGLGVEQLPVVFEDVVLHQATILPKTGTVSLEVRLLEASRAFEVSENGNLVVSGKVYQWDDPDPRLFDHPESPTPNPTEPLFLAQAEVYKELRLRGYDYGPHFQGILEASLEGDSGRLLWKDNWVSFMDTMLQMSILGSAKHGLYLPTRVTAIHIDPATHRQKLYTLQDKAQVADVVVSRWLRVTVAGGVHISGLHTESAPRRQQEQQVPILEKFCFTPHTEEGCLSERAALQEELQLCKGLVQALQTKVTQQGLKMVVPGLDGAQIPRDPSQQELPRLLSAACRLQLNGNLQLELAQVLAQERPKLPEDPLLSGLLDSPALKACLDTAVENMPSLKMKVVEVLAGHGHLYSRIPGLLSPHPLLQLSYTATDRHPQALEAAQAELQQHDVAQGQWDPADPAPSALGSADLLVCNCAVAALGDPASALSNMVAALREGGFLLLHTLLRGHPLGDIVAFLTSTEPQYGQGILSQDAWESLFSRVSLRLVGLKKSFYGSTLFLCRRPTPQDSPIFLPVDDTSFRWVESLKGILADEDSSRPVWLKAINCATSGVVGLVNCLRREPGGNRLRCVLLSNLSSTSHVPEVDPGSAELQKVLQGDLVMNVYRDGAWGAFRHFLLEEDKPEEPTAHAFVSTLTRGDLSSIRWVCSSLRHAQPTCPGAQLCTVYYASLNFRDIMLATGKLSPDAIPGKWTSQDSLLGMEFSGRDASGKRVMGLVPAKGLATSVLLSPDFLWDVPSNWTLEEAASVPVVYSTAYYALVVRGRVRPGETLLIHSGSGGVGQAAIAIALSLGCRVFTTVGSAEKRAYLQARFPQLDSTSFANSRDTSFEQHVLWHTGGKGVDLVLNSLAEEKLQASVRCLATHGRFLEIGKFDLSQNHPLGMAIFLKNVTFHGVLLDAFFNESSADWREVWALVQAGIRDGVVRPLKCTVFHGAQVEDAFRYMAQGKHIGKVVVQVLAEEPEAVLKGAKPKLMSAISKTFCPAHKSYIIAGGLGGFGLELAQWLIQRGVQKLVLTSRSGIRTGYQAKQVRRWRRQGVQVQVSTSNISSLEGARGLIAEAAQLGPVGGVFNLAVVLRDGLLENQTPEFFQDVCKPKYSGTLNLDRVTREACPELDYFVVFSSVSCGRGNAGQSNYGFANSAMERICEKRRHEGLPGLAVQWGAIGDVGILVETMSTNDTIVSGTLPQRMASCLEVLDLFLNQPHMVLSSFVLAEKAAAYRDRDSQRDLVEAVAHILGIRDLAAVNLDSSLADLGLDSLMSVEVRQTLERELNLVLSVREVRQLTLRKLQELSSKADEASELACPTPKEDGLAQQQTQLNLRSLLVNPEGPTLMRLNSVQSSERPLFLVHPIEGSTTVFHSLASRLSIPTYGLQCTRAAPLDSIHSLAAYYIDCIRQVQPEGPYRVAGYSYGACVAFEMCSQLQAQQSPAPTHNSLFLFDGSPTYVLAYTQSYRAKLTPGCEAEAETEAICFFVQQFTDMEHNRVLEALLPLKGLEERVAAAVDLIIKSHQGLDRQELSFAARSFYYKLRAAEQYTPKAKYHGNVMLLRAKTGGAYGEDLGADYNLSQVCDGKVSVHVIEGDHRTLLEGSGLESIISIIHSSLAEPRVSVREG

[38] = non-specific cell cytotoxicity, dose response, cytotoxicity control for PAX8 inhibitor project, plate reader, dry powder samples (AID 743021); format: functional, cell-based
Paired box protein Pax-8 = Paired box protein Pax-8 (Homo sapiens, UniProt Q06710); test: inhibitors of PAX8-driven TPO luciferase reporter, dose response, RMG-I cells, cherry-pick (AID 687027); format: functional, cell-based;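 note: luciferase reporter driven by Pax8 target thyroperoxidase promoter measured by SteadyGlo luminescence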
Sequence of Paired box protein Pax-8 (Q06710 whole entry): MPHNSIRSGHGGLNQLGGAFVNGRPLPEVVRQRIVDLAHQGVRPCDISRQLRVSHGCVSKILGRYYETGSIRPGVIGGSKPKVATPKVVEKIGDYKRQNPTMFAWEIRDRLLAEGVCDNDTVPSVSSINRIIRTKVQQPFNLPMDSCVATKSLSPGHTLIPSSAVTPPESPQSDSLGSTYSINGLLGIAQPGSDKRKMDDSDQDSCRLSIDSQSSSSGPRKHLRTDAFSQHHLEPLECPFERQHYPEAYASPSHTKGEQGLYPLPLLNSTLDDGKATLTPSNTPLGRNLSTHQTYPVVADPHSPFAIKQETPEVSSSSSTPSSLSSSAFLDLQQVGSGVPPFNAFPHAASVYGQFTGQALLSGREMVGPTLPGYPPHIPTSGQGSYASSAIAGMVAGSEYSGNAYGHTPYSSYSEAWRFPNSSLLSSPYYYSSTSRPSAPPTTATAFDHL

[39] = Late stage assay provider results from the probe development effort to identify selective inhibitors of heat shock protein 90 (HSP90): Absorbance-based cell proliferation assay in SKBR3 cells.; format: functional; settings: SK-BR-3
[40] = Late stage assay provider results from the probe development effort to identify selective inhibitors of heat shock protein 90 (HSP90): Absorbance-based cell proliferation assay in MCF7 cells.; format: functional
[41] = cytotoxicity in COV434 cells, dose response, cytotoxicity control for PAX8 inhibitor project, cell-based, plate reader, dry powder, SA7 (AID 743145); format: functional
[42] = cytotoxicity dependent on PAX8, dose response, cell-based, plate reader, dry powder (AID 743049); format: functional
[43] = cytotoxicity in OV-90 ovarian cancer cells, dose response, PAX8 inhibitor project, cell-based, plate reader, dry powder, SA8 (AID 743149); format: functional
[44] = cytotoxicity in COV362 ovarian cancer cells, dose response, cytotoxicity control for PAX8 inhibitor project, cell-based, plate reader, dry powder, SA12 (AID 743144); format: functional
[45] = PAX2 cell-based inhibition, dose response, selectivity assay for PAX8 inhibitor project, plate reader, dry powder samples (AID 743048); format: functional;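 note: HEK293 cells carrying a WT1 promoter luciferase reporter driven by expressed Pax2; potency is for inhibition of Pax2 driven reporter signal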
[46] = PAX5 activity inhibitors, dose response, selectivity assay for PAX8 inhibitor project, cell-based, plate reader, dry powder samples (AID 743047); format: functional;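 note: HEK293 cells carrying a Pax5 driven CD19 promoter luciferase reporter; potency of inhibitors that lower reporter luminescence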
[47] = IGROV1 ovarian cancer cell cytotoxicity, dose response, PAX8 inhibitor project, plate reader, dry powder samples (AID 743043); format: functional, cell-based; settings: IGROV-1
[48] = cytotoxicity in OVCAR4 cells, dose response, cytotoxicity control for PAX8 inhibitor project, cell-based, plate reader, dry powder, SA11 (AID 743150); format: functional; settings: OVCAR-4

CO[C@@H]1CN(C)C(=O)c2ccc(NC(=O)c3ccc(Oc4ccccc4)cc3)cc2OC[C@H](C)NC[C@@H]1C
AC50 [1]: 23.6 µM (active)
AC50 [2]: 11.3 µM (active)

COC(=O)C1=C(C)N(C)C(S)=NC1c1ccccc1 (stereo not drawn)
AC50 [3]: > 92 µM (inactive)
AC50 [4]: 120 µM (active)
AC50 (HEK293 [5]): > 92 µM (inactive)

c1ccc(-c2n[nH]c(-c3ccncc3)n2)nc1
AC50 [6]: > 52 µM (inactive)
IC50 (Nonstructural protein 1): 9.19 µM (active)

Nc1c(C(=O)NCc2ccccc2)c2nc3ccccc3nc2n1CCCN1CCOCC1
AC50 [7]: 17.1 µM (active)
AC50 (cells [8]): 25.2 µM (active)
AC50 (cells [9]): 32.1 µM (active)
AC50 (cells [10]): 15.6 µM (active)

COc1ccc(C2CC(c3ccc4ccccc4c3OC(C)=O)=NN2C(C)=O)cc1 (stereo not drawn)
AC50 (INS1): 3.3 µM (active)
AC50 [11]: 26 µM (active)
EC50 (H4): 456 nM (active)
EC50 [12]: 512 nM (active)
EC50 [13]: 3.82 µM (active)

O=C1NC2C(=CC(O)C(O)C2O)c2cc3c(c(O)c21)OCO3 (stereo not drawn)
AC50 [14]: 431 nM (active)
IC50 (Protein skinhead-1): 24 µM (active)
AC50 [15]: 167 nM (active)
AC50 [16]: 59 µM (active)
IC50 [17]: 49.7 µM (inactive)
IC50 (Beta Lactamase): 49.7 µM (inactive)
AC50 [18]: 170 nM (active)
AC50 [19]: 218 nM (active)
AC50 [20]: < 260 nM (active)
AC50 [21]: 138 nM (active)
AC50 [22]: 161 nM (active)

CN(CC(=O)Nc1ccccc1Cl)C(=O)c1cccc(S(=O)(=O)N2CCN(c3ccccc3)CC2)c1
AC50 [23]: 4.32 µM (active)
AC50 [16]: > 70 µM (inactive)
AC50 [24]: 47.9 µM (active)
AC50 [20]: 3840 nM (active)

Cc1ccccc1S(=O)(=O)Cc1ccc(C(=O)N2CCN(c3cccc(C)c3C)CC2)o1
IC50 (HEK293 [25]): 3.96 µM (active)
EC50 (BJ [26]): 4.92 µM (active)
IC50 (HEK293 [27]): > 20 µM (inactive)
IC50 [28]: > 69.6 µM (inactive)
EC50 [29]: 28.5 µM (active)
EC50 (BJ [30]): 11.1 µM (active)
EC50 (HEK293 [31]): 5.29 µM (active)
EC50 [32]: 4.95 µM (active)
EC50 [33]: > 112 µM (not active)
EC50 (BJ [34]): 10 µM (inconclusive)
EC50 [35]: 10.8 µM (active)
IC50 [36]: 11.7 µM (inactive)
IC50 (HEK293 [37]): 10.5 µM (active)

CCC(=O)Nc1nc(-c2ccc(S(=O)(=O)N3CCC(C)CC3)cc2)cs1
IC50 (Fatty acid synthase): > 80 µM (inactive)

COC(=O)C1C=CC(OC2OC(COC(C)=O)C(OC(C)=O)C(OC(C)=O)C2OC(C)=O)n2c(=O)n(-c3ccccc3)c(=O)n21 (stereo not drawn)
AC50 [38]: 40 µM (active)
AC50 (Paired box protein Pax-8): 3.41 µM (active)

O=C(Nc1ccccc1I)c1coc(=O)c(Br)c1
IC50 [39]: 45.3 µM (inactive)
IC50 [40]: 29.4 µM (inactive)

C[C@@H]1CN([C@H](C)CO)C(=O)c2cc(NC(=O)CCCCCC(=O)Nc3ccccc3N)ccc2O[C@@H]1CN(C)Cc1ccc(C(F)(F)F)cc1
AC50 [41]: > 70 µM (inactive)
AC50 [42]: 10.1 µM (active)
AC50 [43]: > 70 µM (inactive)
AC50 [44]: 32.9 µM (active)
AC50 [45]: > 32 µM (inactive)
AC50 [46]: 30 µM (active)
AC50 (Paired box protein Pax-8): 6.43 µM (active)
AC50 [47]: 39 µM (active)
AC50 [48]: 31.2 µM (active)
